{"source": "paper PMC8333425", "about": "“Discovery of a dual Ras and ARF6 inhibitor from a GPCR endocytosis screen” (Nature Communications, 2021)", "test_system": "Gαi3", "test": "Gαi3 BRET sensor, AT1R-mediated", "assay_type": "cell-based, human", "method": "HEK293SL cells were seeded at a density of 7.5 × 10^5 cells per 100-mm dish and 24 h later, transiently transfected as such. For receptor internalization experiments, cells were transfected with 0.12 μg AT1R-RlucII, B2R-RlucII, or β2AR-RlucII and 0.48 μg of either rGFP-CAAX (to assess removal from the PM) or rGFP-FYVE (to assess accumulation in the endosomes). For β-arrestin recruitment assays, cells were transfected with 0.48 μg of receptor-YFP along with 0.12 μg of β-arrestin-RlucII. For β-arrestin/AP-2 binding experiments, cells were transfected with 1 μg Flag-AT1R, 1 μg β2-Adaptin-YFP, and 0.12 μg β-arrestin2-RlucII. […] For kinetics of β-arrestin recruitment or β-arrestin binding to receptor and AP-2 experiments, cells were serum starved for 30 min, pretreated with 21 (50 µM) or Barbadin (100 µM) for 30 min, stimulated with 100 nM AngII or 1 µM BK and BRET signals were monitored at indicated times using a Victor X Light plate reader (PerkinElmer). […] The BRET ratio was determined by calculating the ratio of the light emitted by YFP over the light emitted by the RlucII. […] For the kinetics of GTPase and PI3K/Akt activation, cells were serum starved, pretreated with 21 (50 µM) or Wortmannin (200 nM) for 30 min, stimulated with ligand (100 nM AngII or 100 ng/ml EGF) and BRET signals were monitored at indicated times. […]", "note": "Values joined by “and” are separate entries in the source; they are usually repeats but may differ in a detail not shown here. Equal entries are not always repeated.", "data": [{"molecule": "CC(C)C(=O)N1CCN(c2ccc(NC(=O)c3cc4ccccc4o3)cc2Cl)CC1", "note": "[Compound 21]", "values": [{"measurement": "Gαi3 engagement by AT1R (BRET sensor)", "setting": "50 μM", "result": "lack of inhibitory effects"}, {"measurement": "Gi3 BRET sensor signal (S_Fig.4b), single experiments", "setting": "listed as Comp 21", "result": "0.11 and 0.122"}]}]}
